Drawing on PMC7315563, “Bioactive fluorenes. Part III: 2,7-dichloro-9H-fluorene-based thiazolidinone and azetidinone analogues as anticancer and antimicrobial against multidrug resistant strains agents” (BMC Chemistry, 2020), this text covers melting point, viability and IC50 for 5 compounds.

For orientation: melting point means the temperature of the solid-liquid transition. One may read the IC50 as the point on the concentration scale where inhibition reaches its midpoint. Low values mean inhibition by little substance, high ones a need for much substance.

Data set [1] relates to A549 human lung cancer cells. In words: cell viability assay (MTT). It counts as cell-based. Conditions: 24 h; for viability at 1 µg/mL: read-out: Validity (%) for sample concentrations (µg/mL) 1; for viability at 10 µg/mL: read-out: Validity (%) for sample concentrations (µg/mL) 10; for viability at 31.25 µg/mL: read-out: Validity (%) for sample concentrations (µg/mL) 31.25; for viability at 62.5 µg/mL: 62.50 µg/mL, read-out: Validity (%) for sample concentrations (µg/mL) 62.50; for viability at 125 µg/mL: read-out: Validity (%) for sample concentrations (µg/mL) 125; for viability at 250 µg/mL: read-out: Validity (%) for sample concentrations (µg/mL) 250; for viability at 500 µg/mL: read-out: Validity (%) for sample concentrations (µg/mL) 500; for viability at 1000 µg/mL: read-out: Validity (%) for sample concentrations (µg/mL) 1000. As for the experimental part: WI-38 normal lung fibroblast cells, A549 lung cancer cells, and MDA-MB-231 breast cancer cells were obtained from VACSERA—Cell Culture Unit, Cairo, Egypt. The cell lines were originally obtained from the American Tissue Culture Collection (ATCC). WI-38, A549, and MDA-MB-231 cell lines were cultured in RPMI-1640 medium supplemented with 10% inactivate fetal bovine serum (FBS) and 1% penicillin/streptomycin were bought (Gibco, Invitrogen, CA). WI-38, A549, and MDA-MB-231 cells were seeded into 96-well plates (at a density of 5000 cells/well). […] Cell viability was then assessed using the MTT assay (Sigma Aldrich, St. Louis, MO, USA), and the absorbance was read at 570 nm using an ELISA microplate reader (Molecular Devices, Downingtown, PA, USA).

In data set [2] the test system is WI-38 human normal fibroblast cells. Nature of the data set: cell viability assay (MTT). The format is cell-based. The following applies: 24 h; for viability at 31.25 µg/mL: read-out: Validity (%) for sample concentrations (µg/mL) 31.25; for viability at 62.5 µg/mL: 62.50 µg/mL, read-out: Validity (%) for sample concentrations (µg/mL) 62.50; for viability at 125 µg/mL: read-out: Validity (%) for sample concentrations (µg/mL) 125; for viability at 250 µg/mL: read-out: Validity (%) for sample concentrations (µg/mL) 250; for viability at 500 µg/mL: read-out: Validity (%) for sample concentrations (µg/mL) 500. The protocol: (§1) WI-38 normal lung fibroblast cells, A549 lung cancer cells, and MDA-MB-231 breast cancer cells were obtained from VACSERA—Cell Culture Unit, Cairo, Egypt. The cell lines were originally obtained from the American Tissue Culture Collection (ATCC). WI-38, A549, and MDA-MB-231 cell lines were cultured in RPMI-1640 medium supplemented with 10% inactivate fetal bovine serum (FBS) and 1% penicillin/streptomycin were bought (Gibco, Invitrogen, CA). WI-38, A549, and MDA-MB-231 cells were seeded into 96-well plates (at a density of 5000 cells/well). On the following day, cells were treated with different concentrations (0, 1, 10, 31.25, 62.5, 125, 250, 500 µg/mL) of 16 fluorene derivatives in fresh medium and incubated for another 24 h. Cell viability was then assessed using the MTT assay (Sigma Aldrich, St. Louis, MO, USA), and the absorbance was read at 570 nm using an ELISA microplate reader (Molecular Devices, Downingtown, PA, USA).

Data set [3] concerns MDA-MB-231 human breast cancer cells. In words: cell viability assay (MTT). It counts as cell-based. Conditions: 24 h; for viability at 1 µg/mL: read-out: Validity (%) for sample concentrations (µg/mL) 1; for viability at 10 µg/mL: read-out: Validity (%) for sample concentrations (µg/mL) 10; for viability at 31.25 µg/mL: read-out: Validity (%) for sample concentrations (µg/mL) 31.25; for viability at 62.5 µg/mL: read-out: Validity (%) for sample concentrations (µg/mL) 62.5; for viability at 125 µg/mL: read-out: Validity (%) for sample concentrations (µg/mL) 125; for viability at 250 µg/mL: read-out: Validity (%) for sample concentrations (µg/mL) 250; for viability at 500 µg/mL: read-out: Validity (%) for sample concentrations (µg/mL) 500. The protocol: as §1

In brackets after ≈: the same amount, converted by molar mass. Bounds are passed on as bounds.

On to `CN(C)c1ccc(C2SCC(=O)N2c2nc(-c3cc(Cl)cc4c3-c3ccc(Cl)cc3C4)cs2)cc1` (stereo not drawn) [5e, 3-(4-(2,7-Dichloro-9H-fluoren-4-yl)thiazol-2-yl)-2-(4-(dimethylamino)phenyl)thiazolidin-4-one], for which the melting point lay in the range of 94 to 96 °C. Further, in data set [1], the viability at 1 µg/mL came out at 93.4%, the viability at 10 µg/mL came to 90.2%, the viability at 31.25 µg/mL was found to be 85.6% and the viability at 62.5 µg/mL stood at 77.3%. In data set [1], the viability at 125 µg/mL came out at 72.2%, the viability at 250 µg/mL turned out to be 65.7%, the viability at 500 µg/mL was found to be 62.2% and the viability at 1000 µg/mL worked out at 48.9%. In addition, the midpoint of inhibition in data set [1], the IC50, lay at 847 µg/mL (≈ 1570 µM). Moreover, in data set [2], the viability at 31.25 µg/mL was found to be 92.4%, the viability at 62.5 µg/mL was 85.7%, the viability at 125 µg/mL was found to be 74.4% and the viability at 250 µg/mL turned out to be 69.3%. In data set [2], the viability at 500 µg/mL was determined as 62.9% and the IC50 is greater than 500 µg/mL. Moreover, in data set [3], the viability at 1 µg/mL is 97.3%, the viability at 10 µg/mL was 96.3%, the viability at 31.25 µg/mL worked out at 93.6% and the viability at 62.5 µg/mL came to 92.6%. In addition, in data set [3], the viability at 125 µg/mL amounted to 85.5%, the viability at 250 µg/mL is 75.9%, the viability at 500 µg/mL worked out at 73.7% and the IC50 was greater than 500 µg/mL.
`O=C1CSC(c2ccc([N+](=O)[O-])cc2)N1c1nc(-c2cc(Cl)cc3c2-c2ccc(Cl)cc2C3)cs1` (stereo not drawn) [5f, 3-(4-(2,7-Dichloro-9H-fluoren-4-yl)thiazol-2-yl)-2-(4-nitrophenyl)thiazolidin-4-one] registered a melting point of 90 to 92 °C. Moreover, in data set [1], the viability at 1 µg/mL stood at 95%, the viability at 10 µg/mL is 89.8%, the viability at 31.25 µg/mL amounted to 87% and the viability at 62.5 µg/mL turned out to be 83.8%. Also, in data set [1], the viability at 125 µg/mL came out at 79.2%, the viability at 250 µg/mL was determined as 75.4%, the viability at 500 µg/mL was found to be 65.5% and the viability at 1000 µg/mL came to 12.6%. This compound also had an IC50 in data set [1] of 567 µg/mL (≈ 1050 µM). In data set [2], the viability at 31.25 µg/mL worked out at 82.5%, the viability at 62.5 µg/mL is 81.9%, the viability at 125 µg/mL is 77% and the viability at 250 µg/mL turned out to be 74.3%. Moreover, in data set [2], the viability at 500 µg/mL stood at 67.8% and the IC50 is greater than 500 µg/mL. For the same compound, in data set [3], the viability at 1 µg/mL was found to be 98.1%, the viability at 10 µg/mL is 97.2%, the viability at 31.25 µg/mL was found to be 89% and the viability at 62.5 µg/mL is 84.7%. For the same compound, in data set [3], the viability at 125 µg/mL came out at 81%, the viability at 250 µg/mL stood at 79.6%, the viability at 500 µg/mL was determined as 77.5% and the IC50 is greater than 500 µg/mL.
`O=C1CSC(c2cccs2)N1c1nc(-c2cc(Cl)cc3c2-c2ccc(Cl)cc2C3)cs1` (stereo not drawn) [5k, 3-(4-(2,7-Dichloro-9H-fluoren-4-yl)thiazol-2-yl)-2-(thiophen-2-yl)thiazolidin-4-one] returned a melting point of 165 to 167 °C. In addition, in data set [1], the viability at 1 µg/mL came out at 95.2%, the viability at 10 µg/mL was determined as 92.3%, the viability at 31.25 µg/mL is 85.9% and the viability at 62.5 µg/mL was 83.9%. Besides, in data set [1], the viability at 125 µg/mL is 79.6%, the viability at 250 µg/mL came to 76.9%, the viability at 500 µg/mL was determined as 60.9% and the viability at 1000 µg/mL was 22.6%. Moreover, half-maximal inhibition in data set [1] (IC50) required 613 µg/mL (≈ 1220 µM). Also, in data set [2], the viability at 31.25 µg/mL turned out to be 80.8%, the viability at 62.5 µg/mL was 71.4%, the viability at 125 µg/mL was 64.8% and the viability at 250 µg/mL came to 51.4%. Further, in data set [2], the viability at 500 µg/mL was found to be 41.9% and the IC50 stood at 288 µg/mL (≈ 574 µM). Further, in data set [3], the viability at 1 µg/mL worked out at 92.3%, the viability at 10 µg/mL was determined as 85.8%, the viability at 31.25 µg/mL worked out at 68.7% and the viability at 62.5 µg/mL was determined as 60.8%. In data set [3], the viability at 125 µg/mL was found to be 56.7%, the viability at 250 µg/mL turned out to be 50.6%, the viability at 500 µg/mL stood at 43% and half-maximal inhibition (IC50) required 330 µg/mL (≈ 658 µM).
Turning to `O=C(O)c1ccc(C2C(Cl)C(=O)N2c2nc(-c3cc(Cl)cc4c3-c3ccc(Cl)cc3C4)cs2)cc1` (stereo not drawn) [6g, 4-(3-Chloro-1-(4-(2,7-dichloro-9H-fluoren-4-yl)thiazol-2-yl)-4-oxoazetidin-2-yl)benzoic acid], the melting point fell in the range of 125 to 127 °C. Further, in data set [1], the viability at 1 µg/mL was found to be 94.5%, the viability at 10 µg/mL is 90.1%, the viability at 31.25 µg/mL came out at 86.9% and the viability at 62.5 µg/mL was 73.5%. In data set [1], the viability at 125 µg/mL was found to be 68.9%, the viability at 250 µg/mL came out at 63.1%, the viability at 500 µg/mL is 18.4% and the viability at 1000 µg/mL is 14.4%. Besides, in data set [1], the 50% inhibitory concentration (IC50) came out at 308 µg/mL (≈ 568 µM). In data set [2], the viability at 31.25 µg/mL came out at 73.9%, the viability at 62.5 µg/mL was 42%, the viability at 125 µg/mL is 37.4% and the viability at 250 µg/mL turned out to be 35.7%. Moreover, in data set [2], the viability at 500 µg/mL was found to be 30.6% and the IC50 turned out to be 40 µg/mL (≈ 73.8 µM). For the same compound, in data set [3], the viability at 1 µg/mL is 96.7%, the viability at 10 µg/mL amounted to 93.9%, the viability at 31.25 µg/mL is 91.2% and the viability at 62.5 µg/mL was found to be 82.9%. In data set [3], the viability at 125 µg/mL came out at 71.1%, the viability at 250 µg/mL came to 65.5%, the viability at 500 µg/mL is 55.6% and the IC50 is greater than 500 µg/mL.
Consider `CC(=O)O[C@H]1C(=O)[C@@]2(C)[C@H]([C@H](OC(=O)c3ccccc3)[C@]3(O)C[C@H](OC(=O)[C@H](O)[C@@H](NC(=O)c4ccccc4)c4ccccc4)C(C)=C1C3(C)C)[C@]1(OC(C)=O)CO[C@@H]1C[C@@H]2O` [Taxol, reference compound], for which the values for the IC50 in data set [1], in data set [2] and in data set [3] were 2.3 µg/mL (≈ 2.69 µM), 41 µg/mL (≈ 48 µM) and 40 µg/mL (≈ 46.8 µM), respectively.
